From US20060052414A1, “Compositions and methods for treating or preventing Hepadnaviridae infection” (priority 2004, published 2006)
Where two headings read alike, the source gives them in different places.

How the values were obtained:
[1] = tested on: HepG 2.2.15; experiment: Cytotoxicity, neutral red dye uptake; details: for Cytotoxicity - Neutral Red Dye Uptake: 24 hours after final treatment
Protocol: (§1) Cytotoxicity analyses were also performed in order to assess whether any observed antiviral effects were due to a general effect on cell viability. This analysis was performed on 96-well plates seeded at the same time and with the identical pool of stock cells used for the antiviral assay described in Example 1. […] Cellular uptake of neutral red dye was used to determine the relative level of toxicity 24 hours after the final treatment. A cell that is viable will take up the neutral red dye, while a dead cell will not. The absorbance of internalized dye at 510 nm (A510) was used for quantitative analysis. Values are presented as a percentage of the average A510 values (±standard deviation, SD) in 9 separate cultures of untreated cells on the same plate.
(§2) The EC90 and CC50 values were used to calculate a Selectivity Index (SI, CC50/EC90) because at least a […] reduction in HBV levels is considered as having achieved statistical significance in this assay (see Korba & Gerin, Antiviral Res. 19:55-70,1992).

[2] = tested on: HBV; experiment: Anti-HBV antiviral assay: extracellular HBV virion DNA by Southern blot in HepG 2.2.15 cultures; format: cell-based, hepatitis B virus
Protocol: Confluent cultures of chronic HBV producing cell line HepG 2.2.15 in 96-well tissue culture plates in RPMI 1640 medium with 2% fetal bovine serum were used for the antiviral analysis of castanospermine esters (see Korba and Gerin, Antivir. Res. 19:55-70, 1992).
Extracellular HBV nucleic acid levels were measured 24 hours after the last treatment by Southern blot hybridization (quantified via densitometry using equipment and methods known in the art) as a measure of the number of HBV virions produced.
Based on the hybridization analysis, about 1.0 pg extracellular HBV DNA/ml of culture medium is roughly equivalent to about 3×10^5 viral particles/ml. Values ±standard deviations (SD) were calculated by linear regression analysis using data combined from all treated cultures. SDs were calculated using the standard error of regression generated from the linear regression analyses.

[3] = Cytotoxicity, neutral red dye uptake; details: human
Protocol: as §1, §2

[4] = Hepatitis B virus, HepG2.2.15, Table 5, monotherapy, or celgosivir concentration in combination with ADV

Structure (SMILES): CCCC(=O)O[C@H]1CN2CC[C@H](O)[C@@H]2[C@@H](O)[C@@H]1O [Celgosivir, [1S-(1α,6β,7α,8β,8aβ)]-octahydro-1,6,7,8-indolizinetetrol 6-butanoate]
- CC50 ([1]; Table 5, 2-fold reduction in neutral red dye uptake, value for the drug named, >1000 = highest concentration tested): > 1000 µM
- HBV Virion DNA Levels ([2]; 15 μM (first panel), 9 daily doses, untreated cells 121 pg/mL): 113 ± 9 pg/mL culture medium
- HBV Virion DNA Levels ([2]; 15 μM celgosivir (third panel; combinations plus ADV at the molar ratio)): 111 ± 8 pg/mL culture medium
- HBV Virion DNA Levels ([2]; 50 μM (first panel), 9 daily doses, untreated cells 121 pg/mL): 56 ± 4 pg/mL culture medium
- HBV Virion DNA Levels ([2]; 50 μM celgosivir (third panel; combinations plus ADV at the molar ratio), assay sensitivity 0.1 pg/mL): 53 ± 6 pg/mL culture medium
- HBV Virion DNA Levels ([2]; 150 μM (first panel), 9 daily doses, untreated cells 121 pg/mL): 17 ± 2 pg/mL culture medium
- HBV Virion DNA Levels ([2]; 150 μM celgosivir (third panel; combinations plus ADV at the molar ratio), assay sensitivity 0.1 pg/mL): 16 ± 2 pg/mL culture medium
- HBV Virion DNA Levels ([2]; 300 μM, 9 daily doses, extracellular, 24 hours after last treatment, untreated cells 121 pg/mL): 8 ± 1 pg/mL culture medium
- EC50 ([2]; Table 3, concentration giving 2-fold reduction in HBV DNA vs untreated cultures, read-out: EC50): 28 ± 1.4 µM
- EC90 ([2]; Table 3, concentration giving 10-fold reduction in HBV DNA vs untreated cultures, read-out: EC90): 158 ± 22 µM
- EC50 ([2]; Table 5, monotherapy, or celgosivir concentration in combination with ADV, read-out: EC50): 24 ± 1.2 µM
- EC90 ([2]; Table 5, monotherapy, or celgosivir concentration in combination with ADV, read-out: EC90): 147 ± 15 µM
- HBV virion production by the 2.2.15 cells, in words ([2]; summary of Tables 2 and 3): caused a reduction in HBV virion production

Structure (SMILES): Nc1ccn([C@@H]2CS[C@H](CO)O2)c(=O)n1 [Compound 3TC, (−)2′,3′-dideoxy, 3′-thiacytidine]
- CC50 [3]: 2340 ± 89 µM
- EC50 ([2]; Hepatitis B virus, HepG2.2.15, Table 3, concentration giving 2-fold reduction in HBV DNA vs untreated cultures): 0.058 ± 0.004 µM
- EC90 ([2]; Hepatitis B virus, HepG2.2.15, Table 3, concentration giving 10-fold reduction in HBV DNA vs untreated cultures): 0.177 ± 0.015 µM
- EC50 [2, 4]: 0.058 ± 0.004 µM
- EC90 [2, 4]: 0.177 ± 0.015 µM
- Selectivity Index (CC50/EC90) ([2]; Table 5, monotherapy, or celgosivir in combination with ADV): 11,709

Structure (SMILES): CC(C)(C)C(=O)OCOP(=O)(COCCn1cnc2c(N)ncnc21)OCOC(=O)C(C)(C)C [ADV, adefovir dipivoxil]
- CC50 [3]: 468 ± 17 µM
- Cytotoxicity - Neutral Red Dye Uptake ([1]; 30 μM (combinations: dose of celgosivir)): 100% ± 2 % of Control
- Cytotoxicity - Neutral Red Dye Uptake ([1]; 100 μM (combinations: dose of celgosivir)): 98% ± 1 % of Control
- Cytotoxicity - Neutral Red Dye Uptake ([1]; 300 μM (combinations: dose of celgosivir)): 73% ± 2 % of Control
- Cytotoxicity - Neutral Red Dye Uptake ([1]; 1000 μM (combinations: dose of celgosivir)): 10% ± 1 % of Control
- HBV Virion DNA Levels ([2]; 0.3 μM ADV, untreated cells 121 pg/mL): 121 ± 13 pg/mL culture medium
- HBV Virion DNA Levels ([2]; 1.0 μM ADV, untreated cells 121 pg/mL): 55 ± 4 pg/mL culture medium
- HBV Virion DNA Levels ([2]; 3.0 μM ADV, untreated cells 121 pg/mL): 11 ± 2 pg/mL culture medium
- HBV Virion DNA Levels ([2]; 10 μM ADV, untreated cells 121 pg/mL): 3 ± 1 pg/mL culture medium
- EC50 ([2]; Hepatitis B virus, HepG2.2.15, Table 3, concentration giving 2-fold reduction in HBV DNA vs untreated cultures, read-out: EC50): 0.95 ± 0.105 µM
- EC90 ([2]; Hepatitis B virus, HepG2.2.15, Table 3, concentration giving 10-fold reduction in HBV DNA vs untreated cultures, read-out: EC90): 2.8 ± 0.1 µM
- EC50 ([2]; Hepatitis B virus, HepG2.2.15, Table 5, monotherapy, or celgosivir concentration in combination with ADV, read-out: EC50): 1 ± 0.1 µM
- EC90 ([2]; Hepatitis B virus, HepG2.2.15, Table 5, monotherapy, or celgosivir concentration in combination with ADV, read-out: EC90): 3 ± 0.1 µM
